Patent publication US5852049A, “Aromatic ethers derived from indoles which are useful as medicaments” (Pierre Fabre Medicament, priority 1994, dated 1998)
Structures can show the parent of a compound that is named as a salt. Where two headings read alike, the source gives them in different places.

Legend:
human 5HT1Dβ = target: T1, human 5HT1Dβ (Homo sapiens, UniProt P28222); experiment: binding to human 5HT1Dβ receptor
T1 construct: expressed in transfected cells; host or cells: Cos-7 and CHO-K1
Experimental: (§1) The study of the binding of the derivatives of the present invention with the human 5HT1Dα, 5HT1Dβ and 5HT1A receptors was carried out according to the method described by P. Pauwels and C. Palmier (Neuropharmacology, 33, 67, 1994).
(§2) The incubation media for these binding measurements comprise 0.4 ml of cell membrane preparation, 0.05 ml of a tritiated ligand [[3H]-5CT (final concentration: 2 nM) for the 5HT1Dα and 5HT1Dβ receptors and [3H]-8OH-DPAT (final concentration: 1 nM) for the 5HT1A receptor] and 0.05 ml of the molecule to be tested (final concentrations: 0.1 to 1000 nM) or 10 μM (final concentration) of serotonin (5HT1Dα and 5HT1Dβ) or 1 μM (final concentration)of spiroxatrine (5HT1A).

human 5HT1A = target: T2, human 5HT1A (Homo sapiens, UniProt P08908); experiment: binding to human 5HT1A receptor (HeLa HA7 cell line)
T2 construct: expressed in transfected cells; host or cells: HeLa HA7
T2 sequence (P08908 1-422): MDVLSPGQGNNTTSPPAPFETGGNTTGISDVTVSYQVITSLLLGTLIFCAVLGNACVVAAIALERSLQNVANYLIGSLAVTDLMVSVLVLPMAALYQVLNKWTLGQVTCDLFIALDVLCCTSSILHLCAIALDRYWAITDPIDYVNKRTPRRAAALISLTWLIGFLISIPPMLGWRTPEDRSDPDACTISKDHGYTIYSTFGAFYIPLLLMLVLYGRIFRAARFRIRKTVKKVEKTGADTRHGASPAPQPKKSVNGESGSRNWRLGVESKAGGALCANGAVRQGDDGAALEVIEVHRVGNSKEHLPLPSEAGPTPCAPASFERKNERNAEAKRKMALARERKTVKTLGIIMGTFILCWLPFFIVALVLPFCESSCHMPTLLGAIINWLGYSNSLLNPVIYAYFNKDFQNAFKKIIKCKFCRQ
Source text: The HeLa HA7 cell line expressing the human 5HT1A receptor was obtained from Tulco (Duke Univ., Durham, N.C., USA) and cultured according to the method of Fargin et al., J. Biol. Chem. 264, 14848 (1989).
Palmier (Neuropharmacology, 33, 67, 1994).

human 5HT1Dα = target: T3, human 5HT1Dα (Homo sapiens, UniProt P28221); experiment: binding to human 5HT1Dα receptor
T3 construct: expressed in transfected cells; host or cells: Cos-7 and CHO-K1
Experimental: as §1, §2

rabbit saphenous vein = experiment: contraction of the rabbit saphenous vein rings mediated by the 5HT1-like receptors; format: cell-based; conditions: Oryctolagus cuniculus; for Emax: read-out: Relative Emax; for EC50: read-out: pD2 (converted)
Source text: The derivatives of the present invention are, in addition, capable, like serotonin, of inducing the contraction of the rabbit saphenous vein rings mediated by the "5HT1-like " receptors.
The technique used was adapted from Van Heuven-Nolsen D. et al., Eur. J. Pharmacol. 191, 375-382 (1990) and from Martin G. R. and Mc Lennan S. J., Naunyn-Schmiedeberg's Arch. Pharmacol. 342, 111-119 (1990) and therefore makes it possible to determine a pD2 value and an Emax relative to serotonin for each product tested.

[1] = human receptor, [3H]-5CT 2 nM, read-out: Ki 5HT1Dβ
[2] = human receptor, HeLa HA7, [3H]-8OH-DPAT 1 nM, read-out: Ki 5HT1A
[3] = Emax of the compound relative to Emax of serotonin
[4] = contraction of the rabbit saphenous vein

T3 sequence (P28221 whole entry): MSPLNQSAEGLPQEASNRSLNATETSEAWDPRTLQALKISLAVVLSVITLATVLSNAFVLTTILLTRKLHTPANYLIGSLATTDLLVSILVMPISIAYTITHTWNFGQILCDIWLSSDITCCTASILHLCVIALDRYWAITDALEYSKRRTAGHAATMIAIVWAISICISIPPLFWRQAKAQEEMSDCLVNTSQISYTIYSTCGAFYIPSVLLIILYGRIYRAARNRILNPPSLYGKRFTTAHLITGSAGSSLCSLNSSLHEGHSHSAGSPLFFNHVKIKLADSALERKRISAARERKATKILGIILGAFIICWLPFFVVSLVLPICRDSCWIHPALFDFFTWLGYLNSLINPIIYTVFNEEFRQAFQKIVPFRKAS
T1 sequence (P28222 whole entry): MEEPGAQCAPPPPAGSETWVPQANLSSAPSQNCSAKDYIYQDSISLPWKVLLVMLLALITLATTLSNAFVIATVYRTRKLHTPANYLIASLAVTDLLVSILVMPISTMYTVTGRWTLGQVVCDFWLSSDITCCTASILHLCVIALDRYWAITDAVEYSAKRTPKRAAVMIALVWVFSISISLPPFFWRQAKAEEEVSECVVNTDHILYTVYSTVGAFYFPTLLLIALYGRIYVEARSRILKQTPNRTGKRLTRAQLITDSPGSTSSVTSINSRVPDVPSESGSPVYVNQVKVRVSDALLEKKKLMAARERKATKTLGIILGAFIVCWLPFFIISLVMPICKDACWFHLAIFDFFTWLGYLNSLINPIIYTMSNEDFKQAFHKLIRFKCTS

| SMILES | EC50 (rabbit saphenous vein; [4]) | Emax (rabbit saphenous vein) | Ki (human 5HT1Dβ) | Ki (human 5HT1A) | Ki (human 5HT1Dα) | other results |
| --- | --- | --- | --- | --- | --- | --- |
| CNS(=O)(=O)CCc1ccc2[nH]cc(C3CCN(C)CC3)c2c1 [Naratriptan, reference compound] | 2880 nM | – | – | – | – | Ki (human 5HT1Dβ; [1]): 2 nM; Ki (human 5HT1A; [2]): 46 nM; Ki (human 5HT1Dα; human receptor, [3H]-5CT 2 nM, read-out: Ki 5HT1Dα): 1.6 nM; Emax (rabbit saphenous vein; [3]): 100% |
| CCOC(=O)CCCCOc1ccc2[nH]cc(CCN)c2c1 [Example 13, Ethyl 5-[3-(2-aminoethyl)-1H-indol-5-yloxy]pentanoate hydrochloride] | 309 nM | 120% | – | – | – | – |
| CCOC(=O)CCCOc1ccc2[nH]cc(CCN)c2c1 [Example 12, Ethyl 4-[3-(2-aminoethyl)-1H-indol-5-yloxy)-butyrate hydrochloride] | 692 nM | 80% | – | – | – | – |
| CCNC(=O)CCCCCOc1ccc2[nH]cc(CCN)c2c1 [Example 20, 6-[3-(2-Aminoethyl)-1H-indol-5-yloxy]-N-ethylhexanamide hydrochloride] | – | – | – | – | – | Ki (human 5HT1Dβ; read-out: Ki 5HT1Dβ, human receptor, [3H]-5CT 2 nM): 1.1 nM; Ki (human 5HT1A; read-out: Ki 5HT1A, human receptor, HeLa HA7, [3H]-8OH-DPAT 1 nM): 46.5 nM; Ki (human 5HT1Dα; read-out: Ki 5HT1Dα, human receptor, [3H]-5CT 2 nM): 2 nM |
| CS(=O)(=O)NCCCCCCOc1ccc2[nH]cc(CCN)c2c1 [Example 19, N-{6-[3-(2-Aminoethyl)-1H-indol-5-yloxy]hexyl}methanesulfonamide hydrochloride] | – | 100% | 0.7 nM | 11.5 nM | 1.1 nM | EC50 (rabbit saphenous vein): 15.8 nM |
| CC(C)OC(=O)CCCCCOc1ccc2[nH]cc(CCN)c2c1 [Example 16, Isopropyl 6-[3-(2-aminoethyl)-1H-indol-5-yloxy]hexanoate hydrochloride] | 240 nM | 136% | 0.7 nM | 9 nM | 1.5 nM | – |
| N#CCCCCCOc1ccc2[nH]cc(CCN)c2c1 [Example 17, 6-[3-(2-Aminoethyl)-1H-indol-5-yloxy]hexanitrile hydrochloride] | – | – | – | – | 2.2 nM | Ki (human 5HT1Dβ; [1]): 2.6 nM; Ki (human 5HT1A; [2]): 24.3 nM |
| CC(=O)OCCCCOc1ccc2[nH]cc(CCN)c2c1 [Example 23, 4-[3-(2-Aminoethyl)-1H-indol-5-yloxy]butylacetate hydrochloride] | – | – | 0.4 nM | 40 nM | 0.9 nM | – |
| CNS(=O)(=O)Cc1ccc2[nH]cc(CCN(C)C)c2c1 [Sumatriptan, reference compound] | 1780 nM | – | – | – | – | Emax (rabbit saphenous vein; [3]): 126% |
| NCCCCCCOc1ccc2[nH]cc(CCN)c2c1 [Example 18, 6-[3-(2-Aminoethyl)-1H-indol-5-yloxy]hexylamine hydrochloride] | – | – | 2 nM | 78.6 nM | 2.4 nM | – |
